From ChEMBL document CHEMBL1126426, “Nucleotidic prodrugs of anti-HIV dideoxynucleosides” (Bioorg Med Chem Lett, 1992)

Columns and labels:
[1] = The compound was evaluated for its stability in RPMI containing 10 % of heat-inactivated FCS.; format: physicochemical; settings: cattle, RPMI culture medium with 10% heat-inactivated FCS
[2] = The compound was evaluated for its stability in RPMI containing 10 % of FCS.; format: physicochemical; settings: cattle, RPMI culture medium with 10% FCS
[3] = The compound was evaluated for its stability in CEM extract; S - Stable; format: physicochemical; settings: human
CCRF-CEM = experiment: The compound was evaluated for the activity on HIV infected CEM cells.; format: functional; settings: Homo sapiens, read-out: ED50 (the source's name)
[4] = Kinetic constant in RPMI containing 10 % of FCS.; format: ADME; settings: cattle
[5] = The compound was evaluated for its stability in RPMI at pH of 7.2 dose 10 x 10e-3; S - Stable; format: physicochemical; settings: pH 7.2
[6] = Kinetic constant in RPMI containing 10 % of heat-inactivated FCS.; format: ADME; settings: cattle

| SMILES | half-life [1] | half-life [2] | T1/2 [3] | EC50 (CCRF-CEM) | k [4] | T1/2 [5] | k [6] |
| --- | --- | --- | --- | --- | --- | --- | --- |
| Nc1ccn(C2CCC(COP(=O)(O)OC[C@@H]3CC[C@H](n4ccc(N)nc4=O)O3)O2)c(=O)n1 (some centres undefined) | 48 h | 22 h | Stable | 50 nM | 0.00052 min⁻¹ | Stable | 0.00024 min⁻¹ |
| COP(=O)(OCC1CCC(n2ccc(N)nc2=O)O1)OC[C@@H]1CC[C@H](n2ccc(N)nc2=O)O1 (some centres undefined) | – | – | – | 500 nM | – | – | – |
| Nc1ccn([C@H]2CC[C@@H](CO)O2)c(=O)n1 [ZALCITABINE] | – | – | – | 100 nM | – | – | – |
